# Reference: patent US7238701B2, “Substituted tetrahydrobenzothienopyrimidinamine compounds useful for treating hyper-proliferative disorders” (Bayer Pharmaceuticals Corporation, priority 2003, dated 2007)
# pIC50: −log10 of the molar value.
# What was measured:
# [1] = system: BT474 (human breast carcinoma); experiment: In vitro tumor cell proliferation assay (Cell Titer-Glo luminescent cell viability), BT474 cells; format: cell-based; details: BT-474, 72 hours drug exposure, 10% Fetal Bovine Serum, ATP luminescence readout, read-out: IC50 (50% inhibition of cell proliferation)
# Outline: (§1)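 ATP luminescence (CellTiter-Glo) measured proliferation after 72 h compound exposure at 37 °C, giving IC50 values. Serial dilutions spanning 64 pM–100 μM in 0.1% DMSO were applied one day after plating 2.5×10^3 cells/well in RPMI plus 10% fetal bovine serum.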
# [2] = system: A431cells (human epidermoid carcinoma); experiment: In vitro tumor cell proliferation assay (Cell Titer-Glo luminescent cell viability), A431 cells; format: cell-based; details: A-431, 72 h, 72 hours drug exposure, 10% Fetal Bovine Serum, ATP luminescence readout, read-out: IC50 (50% inhibition of cell proliferation)
# Outline: as §1
SMILES,pIC50 [1],pIC50 [2]
"O=C(CC1CCc2c(sc3ncnc(Nc4ccc(F)c(Cl)c4)c23)C1)N1CCOCC1 (centres unmarked) [Example 61, N-(3-chloro-4-fluorophenyl)-7-[2-(4-morpholinyl)-2-oxoethyl]-5,6,7,8-tetrahydro[1]benzothieno[2,3-d]pyrimidin-4-amine]",> 4.30,> 5.30
"CS(=O)(=O)CCNC(=O)C1CCc2c(sc3ncnc(Nc4ccc(F)c(Cl)c4)c23)C1 (centres unmarked) [Example 52, 4-[(3-chloro-4-fluorophenyl)amino]-N-[2-(methylsulfonyl)ethyl]-5,6,7,8-tetrahydro[1]benzothieno[2,3-d]pyrimidine-7-carboxamide]",> 4.30,> 4.30
"O=C(O)CC1CCc2c(sc3ncnc(Nc4cccc(Br)c4)c23)C1 (centres unmarked) [Example 65, {4-[(3-bromophenyl)amino]-5,6,7,8tetrahydro[1]benzothieno[2,3-d]pyrimidin-7-yl}acetic acid]",> 4.30,> 4.30
"O=C(O)C1CCc2c(sc3ncnc(Nc4cccc(Br)c4)c23)C1 (centres unmarked) [Example 1, 4-[(3-bromophenyl)amino]-5,6,7,8-tetrahydro[1]benzothieno[2,3-d]pyrimidine-7-carboxylic acid]",> 4.30,> 4.30
"CN(C)[C@@H]1CCN(CCC2CCc3c(sc4ncnc(Nc5ccc(F)c(Cl)c5)c34)C2)C1 (stereo partly drawn) [Example 100, N-(3-chloro-4-fluorophenyl)-7-{2-[(3R)-3-(dimethylamino)-1-pyrrolidinyl]ethyl}-5,6,7,8-tetrahydro[1]benzothieno[2,3-d]pyrimidin-4-amine]",> 4.30,> 4.30
"CCOC(=O)C1CCc2c(sc3ncnc(Nc4ccc(C)c(O)c4)c23)C1 (centres unmarked) [Example 39, Ethyl 4-[(3-hydroxy-4-methylphenyl)amino]-5,6,7,8-tetrahydro[1]benzothieno[2,3-d]pyrimidine-7-carboxylate]",> 5.30,> 4.30
"Brc1cccc(Nc2ncnc3sc4c(c23)CCC(CCN2CCCC2)C4)c1 (centres unmarked) [Example 85, N-(3-bromophenyl)-7-[2-(1-pyrrolidinyl)ethyl]-5,6,7,8-tetrahydro[1]benzothieno[2,3-d]pyrimidin-4-amine]",> 5.30,> 5.30
"Fc1ccc(Nc2ncnc3sc4c(c23)CCC(CCN2CCN(Cc3ccncc3)CC2)C4)cc1Cl (centres unmarked) [Example 99, N-(3-chloro-4-fluorophenyl)-7-{2-[4-(4-pyridinylmethyl)-1-piperazinyl]ethyl}-5,6,7,8-tetrahydro[1]benzothieno[2,3-d]pyrimidin-4-amine]",> 5.30,> 4.30
"Fc1ccc(Nc2ncnc3sc4c(c23)CCC(CCN2CCOCC2)C4)cc1Cl (centres unmarked) [Example 54, N-(3-chloro-4-fluorophenyl)-7-[2-(4-morpholinyl)ethyl]-5,6,7,8-tetrahydro[1]benzothieno[2,3-d]pyrimidin-4-amine]",> 5.30,> 5.30
"C=CCNC(=O)C1CCc2c(sc3ncnc(Nc4cccc(Br)c4)c23)C1 (centres unmarked) [Example 56, N-allyl-4-[(3-bromophenyl)amino]-5,6,7,8-tetrahydro[1]benzothieno[2,3-d]pyrimidine-7-carboxamide]",> 4.30,> 4.30
"CN(C)[C@@H]1CCN(CCC2CCc3c(sc4ncnc(Nc5cccc(Br)c5)c34)C2)C1 (stereo partly drawn) [Example 94, N-(3-bromophenyl)-7-{2-[(3R)-3-(dimethylamino)-1-pyrrolidinyl]ethyl}-5,6,7,8-tetrahydro[1]benzothieno[2,3-d]pyrimidin-4-amine]",> 5.30,> 5.30
"COc1ccc(NCCC2CCc3c(sc4ncnc(Nc5cccc(Br)c5)c34)C2)cc1 (centres unmarked) [Example 89, N-(3-bromophenyl)-7-{2-[(4-methoxyphenyl)amino]ethyl}-5,6,7,8-tetrahydro[1]benzothieno[2,3-d]pyrimidin-4-amine]",> 4.30,> 4.30

# The remaining lines, values ahead:
pIC50 [1],pIC50 [2],SMILES
> 5.30,> 5.30,"OCCNCCC1CCc2c(sc3ncnc(Nc4ccc5c(cnn5Cc5ccccc5)c4)c23)C1 (centres unmarked) [Example 206, 2-[(2-{4-[(1-benzyl-1H-indazol-5-yl)amino]-5,6,7,8-tetrahydro[1]benzothieno[2,3-d]pyrimidin-7-yl}ethyl)amino]ethanol]"
> 5.30,> 4.30,"N#Cc1ccc(N2CCN(CCC3CCc4c(sc5ncnc(Nc6ccc(OCc7cccc(F)c7)c(Cl)c6)c45)C3)CC2)cc1 (centres unmarked) [Example 172, 4-(4-{2-[4-({3-chloro-4-[(3-fluorobenzyl)oxy]phenyl}amino)-5,6,7,8-tetrahydro[1]benzothieno[2,3-d]pyrimidin-7-yl]ethyl}piperazin-1-yl)benzonitrile]"
> 5.30,> 5.30,"CN(C)[C@H]1CCN(CCC2CCc3c(sc4ncnc(Nc5ccc(OCc6ccc(F)cc6)c(Cl)c5)c34)C2)C1 (stereo partly drawn) [Example 157, N-{3-chloro-4-[(4-fluorobenzyl)oxy]phenyl}-7-{2-[(3S)-3-(dimethylamino)pyrrolidin-1-yl]ethyl}-5,6,7,8-tetrahydro[1]benzothieno[2,3-d]pyrimidin-4-amine]"
> 5.30,> 4.30,"CNCCC1CCc2c(sc3ncnc(Nc4ccc5c(cnn5Cc5ccccc5)c4)c23)C1 (centres unmarked) [Example 229, N-(1-benzyl-1H-indazol-5-yl)-7-[2-(methylamino)ethyl]-5,6,7,8-tetrahydro[1]benzothieno[2,3-d]pyrimidin-4-amine]"
> 5.30,> 5.30,"Cc1ccc(Oc2ccc(Nc3ncnc4sc5c(c34)CCC(CCN3CCCC3)C5)cc2C)cn1 (centres unmarked) [Example 221, N-{3-methyl-4-[(6-methylpyridin-3-yl)oxy]phenyl}-7-(2-pyrrolidin-1-ylethyl)-5,6,7,8-tetrahydro[1]benzothieno[2,3-d]pyrimidin-4-amine]"
> 5.30,> 5.30,"CN(C)[C@H]1CCN(CCC2CCc3c(sc4ncnc(Nc5ccc(OCc6cccc(F)c6)c(Cl)c5)c34)C2)C1 (stereo partly drawn) [Example 140, N-{3-chloro-4-[(3-fluorobenzyl)oxy]phenyl}-7-{2-[(3S)-3-(dimethylamino)pyrrolidin-1-yl]ethyl}-5,6,7,8-tetrahydro[1]benzothieno[2,3-d]pyrimidin-4-amine]"
> 5.30,> 5.30,"OCCN(CCO)CCC1CCc2c(sc3ncnc(Nc4ccc(OCc5cccc(F)c5)c(Cl)c4)c23)C1 (centres unmarked) [Example 165, 2,2′-({2-[4-({3-chloro-4-[(3-fluorobenzyl)oxy]phenyl}amino)-5,6,7,8-tetrahydro[1]benzothieno[2,3-d]pyrimidin-7-yl]ethyl}imino)diethanol]"
> 5.30,> 4.30,"COCCNCCC1CCc2c(sc3ncnc(Nc4ccc(Oc5ccc(C)nc5)c(C)c4)c23)C1 (centres unmarked) [Example 216, 7-{2-[(2-methoxyethyl)amino]ethyl}-N-{3-methyl-4-[(6-methylpyridin-3-yl)oxy]phenyl}-5,6,7,8-tetrahydro[1]benzothieno[2,3-d]pyrimidin-4-amine]"
> 5.30,> 5.30,"CS(=O)(=O)CCNCCC1CCc2c(sc3ncnc(Nc4ccc5c(cnn5Cc5ccccc5)c4)c23)C1 (centres unmarked) [Example 210, N-(1-benzyl-1H-indazol-5-yl)-7-(2-{[2-(methylsulfonyl)ethyl]amino}ethyl)-5,6,7,8-tetrahydro[1]benzothieno[2,3-d]pyrimidin-4-amine]"
> 5.30,> 4.30,"CNCCC1CCc2c(sc3ncnc(Nc4ccc(OCc5ccccn5)c(Cl)c4)c23)C1 (centres unmarked) [Example 187, N-[3-chloro-4-(pyridin-2-ylmethoxy)phenyl]-7-[2-(methylamino)ethyl]-5,6,7,8-tetrahydro[1]benzothieno[2,3-d]pyrimidin-4-amine]"
> 5.30,> 5.30,"O[C@H]1CCN(CCC2CCc3c(sc4ncnc(Nc5ccc(OCc6cccc(F)c6)c(Cl)c5)c34)C2)C1 (stereo partly drawn) [Example 186, (3S)-1-{2-[4-({3-chloro-4-[(3-fluorobenzyl)oxy]phenyl}amino)-5,6,7,8-tetrahydro[1]benzothieno[2,3-d]pyrimidin-7-yl]ethyl}pyrrolidin-3-ol]"
> 4.30,> 4.30,"O=C(CC1CCc2c(sc3ncnc(Nc4ccc(OCc5ccc(F)cc5)c(Cl)c4)c23)C1)N1CCOCC1 (centres unmarked) [Example 144, N-{3-chloro-4-[(4-fluorobenzyl)oxy]phenyl}-7-(2-morpholin-4-yl-2-oxoethyl)-5,6,7,8-tetrahydro[1]benzothieno[2,3-d]pyrimidin-4-amine]"
> 5.30,> 5.30,"Clc1cc(Nc2ncnc3sc4c(c23)CCC(CCN2CCOCC2)C4)ccc1OCc1ccccn1 (centres unmarked) [Example 177, [3-Chloro-4-(pyridin-2-ylmethoxy)-phenyl]-[7-(2-morpholin-4-yl-ethyl)-5,6,7,8-tetrahydro-benzo[4,5]thieno[2,3-d]pyrimidin-4-yl]-amine]"
> 5.30,> 5.30,"COCCN(C)CCC1CCc2c(sc3ncnc(Nc4ccc(OCc5ccc(F)cc5)c(Cl)c4)c23)C1 (centres unmarked) [Example 152, N-{3-chloro-4-[(4-fluorobenzyl)oxy]phenyl}-7-{2-[(2-methoxyethyl)(methyl)amino]ethyl}-5,6,7,8-tetrahydro[1]benzothieno[2,3-d]pyrimidin-4-amine]"
> 5.30,> 4.30,"Cc1ccc(Oc2ccc(Nc3ncnc4sc5c(c34)CCC(CCN(CCO)CCO)C5)cc2C)cn1 (centres unmarked) [Example 231, 2,2′-({2-[4-({3-methyl-4-[(6-methylpyridin-3-yl)oxy]phenyl}amino)-5,6,7,8-tetrahydro[1]benzothieno[2,3-d]pyrimidin-7-yl]ethyl}imino)diethanol]"
> 5.30,> 4.30,"COCCN(C)CCC1CCc2c(sc3ncnc(Nc4ccc(Oc5ccc(C)nc5)c(C)c4)c23)C1 (centres unmarked) [Example 218, 7-{2-[(2-methoxyethyl)(methyl)amino]ethyl}-N-{3-methyl-4-[(6-methylpyridin-3-yl)oxy]phenyl}-5,6,7,8-tetrahydro[1]benzothieno[2,3-d]pyrimidin-4-amine]"
